pIC50: −log10 of the molar value. The source made the active and inactive calls. The rule behind the calls is not given here.
Target: T-cell receptor (TCR)-CD3 interaction, human (TCR alpha chain TRAV4)
Assay: IC50 for blocking TCR-CD3 binding – biochemical, fluorescence, TAMRA-labeled TCR probe, dose response (AID 686957)

| IC50 | pIC50 | Compound |
| --- | --- | --- |
| > 93.9 µM (inactive) |  | O=C(NNC(=O)c1ccccc1O)c1ccccc1O |
| > 94.1 µM (inactive) |  | CN(CCC#N)C(=O)COC(=O)c1c2c(nc3ccccc13)/C(=C\c1ccco1)CC2 |
| inactive |  | CCc1n[nH]c(=S)n1/N=C/c1cc(OC)cc([N+](=O)[O-])c1O |
| > 94.2 µM (inactive) |  | Cc1cc([N+](=O)[O-])cc(/C=N\NC(=O)C2COc3ccccc3O2)c1O (stereo not drawn) |
| > 94.1 µM (inactive) |  | CCN(CC(=O)Nc1c(F)cccc1F)C(=O)/C=C/c1ccc2ccccc2n1 |
| > 94.1 µM (inactive) |  | O=C(NC(=S)NNC(=O)c1ccccc1O)c1cccnc1 |
| > 94 µM (inactive) |  | O=C(N/N=C/c1ccoc1)c1cc(O)cc(O)c1 |
| > 94.1 µM (inactive) |  | Cc1cc(Br)cc(/C=N/NC(=O)c2ccc3c(c2)OCO3)c1O |
| > 94.1 µM (inactive) |  | COc1ccc(/C=C2\SC(=O)N(CC(=O)NNC(=O)c3ccccc3O)C2=O)cc1 |
| > 94.1 µM (inactive) |  | C/C(=N\NC(=O)c1c(C)nc2ccccn12)c1ccc(O)cc1O |
| > 94.1 µM (inactive) |  | CC(C)(C)c1ccc(C(=O)NCC(=O)NNC(=O)c2ccccc2O)cc1 |
| > 94.2 µM (inactive) |  | COc1ccccc1C(=O)NNC(=O)c1ccc2ccccc2c1O |
| > 94.1 µM (inactive) |  | O=[N+]([O-])c1cc(Cl)cc(/C=N/NC(=S)Nc2ccc(S(=O)(=O)N3CCOCC3)cc2)c1O |
| > 94.1 µM (inactive) |  | Cc1c(NC(=S)N/N=C/c2cc([N+](=O)[O-])ccc2O)c(=O)n(-c2ccccc2)n1C |
| > 94.1 µM (inactive) |  | O=C(NNC(=S)NC(=O)c1cccnc1)c1ccc(F)cc1 |
| > 94.1 µM (inactive) |  | NC(=O)CCC1NC(=S)N(Cc2ccccc2)C1=O (stereo not drawn) |

Further lines, the compound ahead of its results:

| Compound | IC50 | pIC50 |
| --- | --- | --- |
| CC1=NN(C(=O)c2ccccc2)C(O)(c2ccc(Br)cc2)C1 (stereo not drawn) | > 94.2 µM (inactive) |  |
| COCCn1c(=NC(=O)c2cc(-c3cccs3)nc3ccccc23)sc2cc(S(N)(=O)=O)ccc21 | > 94.1 µM (inactive) |  |
| Cc1cc(C)c(-c2cc(NC(=O)COC(=O)c3ccc(NC(=O)CC#N)cc3)n(-c3ccccc3)n2)cc1C | > 94.1 µM (inactive) |  |
| CNC(=S)NNC(=O)c1cccn(Cc2cccc(C(F)(F)F)c2)c1=O | > 94.1 µM (inactive) |  |
| CCOc1ccc(NC(=O)NNC(=O)c2ccc3ccccc3c2O)cc1 | > 94.1 µM (inactive) |  |
| CC1(C)CC2CC(C)(CN2S(=O)(=O)c2ccc(C(=O)Nc3cccc(S(=O)(=O)N4CCOCC4)c3)cc2)C1 (stereo not drawn) | inactive |  |
| CCOc1ccc(Nc2ccc(N)c(S(=O)(=O)O)c2)cc1 | > 94.1 µM (inactive) |  |
| Cc1cc(C(=O)N/N=C/c2cc(Br)cc([N+](=O)[O-])c2O)c2ccccc2n1 | > 94.1 µM (inactive) |  |
| Cc1nc(S/C(=C\c2ccc(-c3ccc(C(=O)O)c(Cl)c3)o2)C(=O)O)n[nH]1 | > 94.1 µM (inactive) |  |
| O=C(CSc1nc2ccccc2s1)N/N=C/c1cc([N+](=O)[O-])ccc1O | > 94.1 µM (inactive) |  |
| Oc1ccc(/C=N/Nc2ncnc3c2ncn3Cc2ccccc2)cc1O | > 94.1 µM (inactive) |  |
| CCOC(=O)c1c(C)[nH]c(C(=O)N/N=C/c2cc([N+](=O)[O-])ccc2O)c1C | > 94.1 µM (inactive) |  |
| COc1ccc(C(=O)C=CNNC(=O)c2ccc(Cl)cc2)cc1 | > 94.1 µM (inactive) |  |
| CCOC(=O)Cn1c(=NC(=O)c2cc(-c3cccs3)nc3ccccc23)sc2cc(S(N)(=O)=O)ccc21 | > 94.1 µM (inactive) |  |
| COC(=O)Cn1c(=NC(=O)c2cc(-c3cccs3)nc3ccccc23)sc2cc(S(N)(=O)=O)ccc21 | > 10.5 µM (inactive) |  |
| CN=c1scc(C)n1/N=C/c1ccc(O)c(O)c1O | inactive |  |
| O=C(N/N=C/c1ccc(O)c(O)c1)N/N=C/c1ccc(O)c(O)c1 |  | 5.99 |
| O=C1COc2ccc(C(=O)COC(=O)/C=C/c3ccc(Br)o3)cc2N1 | > 94.1 µM (inactive) |  |
| COC(=O)Nc1ccc(S(=O)(=O)NNC(=O)c2c(O)c3ccccc3[nH]c2=O)cc1 | > 94.1 µM (inactive) |  |
| O=C1NC(=S)NC1=Cc1ccco1 | > 94.1 µM (inactive) |  |
| CCn1c(C)nc2cc(C(=O)NNC(=S)NC(=O)c3ccccc3)ccc21 | > 94.1 µM (inactive) |  |
| O=C(N/N=C/c1cccc([N+](=O)[O-])c1O)c1cccs1 | > 94.1 µM (inactive) |  |
| Cc1ccc(S(=O)(=O)N2CCC(C(=O)NNC(=O)c3ccccc3O)CC2)cc1C | > 94.1 µM (inactive) |  |
| COc1cccc(C(=O)NNC(=O)c2ccc3ccccc3c2O)c1 | > 94.1 µM (inactive) |  |
| O=c1cc(-c2ccc(O)cc2)oc2cc(O)c(C3OC(CO)C(O)C(O)C3O)c(O)c12 (stereo not drawn) | > 94.1 µM (inactive) |  |
| Cc1noc(C)c1COc1ccc(C(=O)NNC(=O)c2ccccc2O)cc1 | > 94.1 µM (inactive) |  |
| C=CCNC(=S)NNC(=O)c1cccn(Cc2cccc(Cl)c2)c1=O | > 94.1 µM (inactive) |  |

Source: PubChem BioAssay AID686957 (The Scripps Research Institute Molecular Screening Center, 2013)
